IC50 data for 67 compounds are collected here from ChEMBL document CHEMBL5728748 (2021).

The nature of this assay: TarO Biochemical Enzymatic Assay: The TarO biochemical enzymatic assay is a liquid chromatography-mass spectroscopy (LC-MS) based end point assay that measures C55-P-P-GlcNAc (LIPID III) production. The TarO biochemical enzymatic assay was performed in a 384-well microtiter plate (Labcyte) with a reaction volume of 20 μl. The reaction mix contained 0.1 μgs/μl of TarO membrane preparation derived from MRSA COL (lysostaphin/lysozyme treated, centrifuged at 40K rpm, and re-suspended in 50 mM Tris pH 7.5, 10 mM MgCl2), 1500 μM UDP-GlcNAc, x 75 μM C55-P substrates in 83 mM Tris pH 8.0, 6.7 mM MgCl2, 6 mM CHAPS, and 8.3% DMSO buffer. The enzyme reactions were quenched by extraction in 40 μl of 1-pentanol containing 0.04 μM […] C55-PP-GlcNAc, which was used as an internal standard. A 10 μl volume of the quenched reaction mixture (pH≈3) from each well was injected onto a reversed-phase column (C4, 5 m, 2.1×50 mm, Thermo Scientific Biobacis-4) and eluted using a NH4Ac/H2O/MeOH gradient (solvent A: 10 mM NH4Ac in water, pH 5.6; solvent B: NH4Ac (1 M)-Isopropanol (1:90, v/v, pH 5.6). The HPLC conditions were as follows: 15% solvent B for 15 seconds followed by a gradient to 90% solvent B in 90 seconds; then solvent B was kept at 95% for 10 seconds followed by a gradient to 8% solvent B in 0.1 minute. The column was then equilibrated at 15% B for 1 minute before the next injection. The flow rate was kept constant at 600 μl/minute. Mass spectrometric detection was carried out in the negative-ion mode using selected reaction monitoring (SRM). Typical mass spectrometric conditions were as follows: heated capillary temperature, 210° C.; spray voltage, 2500 V; desolvation gas (N2), 40 l/h; auxiliary gas (N2), 35 l/h. Selected ion current (SIC) chromatograms of C55-PP-GlcNAc and internal standard 15C C55-PP-GlcNAc were plotted and integrated using LCQuan incorporated in Xcalibur software (ThermoFinnigan). The linearity of C55-PP-GlcNAc concentration versus mass spectrometric signal (AC55-PP-GlcNAc/A15C-C55-PP-GlcNAc) was determined with purified C55-PP-GlcNAc. The IC50 values were calculated using the nonlinear regression analysis (sigmoidal dose response fit allowing for a variable slope) of percent inhibition data with minimum and maximum values set to 0 and 100 percent.

The term IC50 denotes the concentration that inhibits the measured activity by half. In the case of `C[C@H]1[C@@H](c2cc(F)c(F)c(F)c2)OC(=O)N1C(=O)CCc1cncc2ccccc12`, the IC50 was 1810 nM.

In the case of `O=C(CCc1cncc2ccccc12)N1CC(c2cccc(F)c2F)OC1=O` (configuration not stated), the IC50 is 1200 nM.

With `C[C@H]1[C@@H](c2cc(C(F)(F)F)cc(C(F)(F)F)c2)OC(=O)N1C(=O)NCc1cccc2ccnn12`, the IC50 is 10 nM.

On to `C[C@H]1[C@@H](c2cc(C(F)(F)F)cc(C(F)(F)F)c2)OC(=O)N1C(=O)CCc1cccc2ccncc12`, for which the IC50 was 410 nM.

Turning to `C[C@H]1[C@@H](c2cc(C(F)(F)F)ccn2)OC(=O)N1C(=O)CCc1cncc2ccccc12`, the IC50 is 6980 nM.

For `COc1cc([C@H]2OC(=O)N(C(=O)NCc3cncc4ccccc34)[C@H]2CO)cc(C(F)(F)F)c1`, the IC50 is 200 nM.

With `COc1ccncc1CNC(=O)N1C(=O)O[C@H](c2cc(C(F)(F)F)cc(C(F)(F)F)c2)[C@@H]1CO`, the half-maximal inhibitory concentration (IC50) is 200 nM.

As to `C[C@H]1[C@@H](c2cc(F)cc(C(F)(F)F)c2)OC(=O)N1C(=O)NCc1ccccc1C(F)(F)F`, the IC50 was 30 nM.

Regarding `C[C@H]1[C@@H](c2cc(F)cc(C(F)(F)F)c2)OC(=O)N1C(=O)NCc1ccccc1Cl`, the concentration for half-maximal inhibition (IC50) is 170 nM.

For the compound `C[C@H]1[C@@H](c2cc(F)cc(C(F)(F)F)c2)OC(=O)N1C(=O)NCc1cccc2ccccc12`, the IC50 is 20 nM.

For `COc1ccccc1CNC(=O)N1C(=O)O[C@H](c2cc(F)cc(C(F)(F)F)c2)[C@@H]1C`, the IC50 was 30 nM.

With `C[C@H]1[C@@H](c2cc(F)cc(C(F)(F)F)c2)OC(=O)N1C(=O)NCc1cccc2c1C(=O)NC2`, the IC50 is 1690 nM.

On to `C[C@H]1[C@@H](c2cc(F)cc(C(F)(F)F)c2)OC(=O)N1C(=O)NCc1ccnc2ccccc12`, for which the IC50 was 200 nM.

In the case of `O=C(NCc1cccc2cncnc12)N1C(=O)O[C@H](c2cc(C(F)(F)F)cc(C(F)(F)F)c2)[C@@H]1CO`, the IC50 was 80 nM.

On to `C[C@H]1[C@@H](c2cc(F)cc(C(F)(F)F)c2)OC(=O)N1C(=O)NCc1ccnc2cccnc12`, for which the IC50 was 540 nM.

For the compound `C[C@H]1[C@@H](c2cc(C(F)(F)F)cc(C(F)(F)F)c2)OC(=O)N1C(=O)NCc1ncccc1Br`, the IC50 is 260 nM.

Turning to `Cc1ccc2c(n1)N(CCC(=O)N1C(=O)O[C@H](c3cc(F)cc(C(F)(F)F)c3)[C@@H]1C)CCO2`, the IC50 was 240 nM.

Regarding `C[C@H]1[C@@H](c2cc(C(F)(F)F)cc(C(F)(F)F)c2)OC(=O)N1C(=O)NCc1cccnc1N1CCOCC1`, the IC50 was 3610 nM.

For `C[C@H]1[C@@H](c2cc(C(F)(F)F)cc(C(F)(F)F)c2)OC(=O)N1C(=O)NCc1cncc2ccccc12`, the IC50 was 30 nM.

For `C[C@H]1[C@@H](c2cccc(OC(F)(F)F)c2)OC(=O)N1C(=O)CCc1cncc2ccccc12`, the IC50 was 140 nM.

Regarding `CCOc1cc([C@H]2OC(=O)N(C(=O)NCc3cccc4cncnc34)[C@H]2C)nc(C(F)(F)F)c1`, the half-inhibitory concentration (IC50) was 10 nM.

Consider `C[C@H]1[C@@H](c2cc(C(F)(F)F)cc(C(F)(F)F)c2)OC(=O)N1C(=O)NCc1cccc2nccnc12`, for which the IC50 was 50 nM.

As to `CCOc1ccccc1CNC(=O)N1C(=O)O[C@H](c2cc(F)cc(C(F)(F)F)c2)[C@@H]1C`, the IC50 was 100 nM.

As for `O=C(CCc1cncc2ccccc12)N1CC(c2cc(C(F)(F)F)cc(C(F)(F)F)c2)OC1=O` (configuration not stated), the IC50 was 420 nM.

Regarding `C[C@H]1[C@@H](c2cc(C(F)(F)F)cc(C(F)(F)F)c2)OC(=O)N1C(=O)CCc1cncc2ccccc12`, the IC50 is 10 nM.

As for `COc1cccc([C@H]2OC(=O)N(C(=O)CCc3cccc4ccccc34)[C@H]2C)n1`, the IC50 is 3000 nM.

With `C[C@H]1[C@@H](c2cccc(OC(F)(F)F)c2)OC(=O)N1C(=O)CCc1cccc2ccccc12`, the IC50 was 40 nM.

As to `Cc1cccnc1CCNC(=O)N1C(=O)O[C@H](c2cc(C(F)(F)F)cc(C(F)(F)F)c2)[C@@H]1C`, the IC50 is 1780 nM.

For `Cc1cc([C@H]2OC(=O)N(C(=O)CCc3cccc4cnccc34)[C@H]2C)cc(C(F)(F)F)c1`, the IC50 is 250 nM.

As for `Cc1cccc(OCC(=O)N2C(=O)O[C@H](c3cccc(C(F)(F)F)c3)[C@@H]2C)c1C`, the IC50 was 680 nM.

Take `O=C(NCc1cncc2ccccc12)N1C(=O)O[C@H](c2cc(F)cc(C(F)(F)F)c2)[C@@H]1CO`: the IC50 is 210 nM.

On to `C[C@H]1[C@@H](c2cc(C(F)(F)F)cc(C(F)(F)F)c2)OC(=O)N1C(=O)NCc1nccc2ccoc12`, for which the IC50 was 150 nM.

Regarding `C[C@H]1[C@@H](c2cc(F)cc(C(F)(F)F)c2)OC(=O)N1C(=O)NCc1ccccc1-n1cccc1`, the half-inhibitory concentration (IC50) was 450 nM.

With `Cc1cc(F)cc([C@H]2OC(=O)N(C(=O)CCc3cncc4ccccc34)[C@H]2C)c1`, the IC50 is 1880 nM.

On to `C[C@H]1[C@@H](c2cc(F)cc(C(F)(F)F)c2)OC(=O)N1C(=O)NCc1nccc2sccc12`, for which the concentration for half-maximal inhibition (IC50) is 120 nM.

As for `C[C@H]1[C@@H](c2cccc(C(C)(F)F)c2)OC(=O)N1C(=O)NCc1cncc2ccccc12`, the IC50 was 250 nM.

For the compound `C[C@H]1[C@@H](c2cc(F)cc(C(F)(F)F)c2)OC(=O)N1C(=O)CCc1cncc2ccccc12`, the IC50 was 80 nM.

Consider `COc1cccc([C@H]2OC(=O)N(C(=O)CCc3cncc4ccccc34)[C@H]2C)c1`, for which the IC50 was 1200 nM.

In the case of `C[C@H]1[C@@H](c2cc(N3CCC(F)(F)C3)cc(C(F)(F)F)c2)OC(=O)N1C(=O)NCc1cccc2cncnc12`, the IC50 is 260 nM.

Regarding `O=C(CCc1cncc2ccccc12)N1C[C@H](c2cc(C(F)(F)F)cc(C(F)(F)F)c2)OC1=O`, the half-maximal inhibitory concentration (IC50) was 540 nM.

For the compound `C[C@H]1[C@@H](c2cc(C(F)(F)F)cc(C(F)(F)F)c2)OC(=O)N1C(=O)CCc1cccc2sccc12`, the IC50 was 10 nM.

With `COc1cccnc1CNC(=O)N1C(=O)O[C@H](c2cc(C(F)(F)F)cc(C(F)(F)F)c2)[C@@H]1C`, the IC50 is 910 nM.

Regarding `C[C@H]1[C@@H](c2cc(F)cc(C(F)(F)F)c2)OC(=O)N1C(=O)NCc1cccc2nccnc12`, the IC50 is 190 nM.

As to `C[C@H]1[C@@H](c2cc(F)cc(C(F)(F)F)c2)OC(=O)N1C(=O)NCc1cnc2sccn12`, the IC50 was 77000 nM.

On to `C[C@H]1[C@@H](c2cc(C(F)(F)F)cc(C(F)(F)F)c2)OC(=O)N1C(=O)NCC1CCCc2ccccc21` (some centres not stated), for which the IC50 was 160 nM.

On to `COc1cncc(CNC(=O)N2C(=O)O[C@H](c3cc(C(F)(F)F)cc(C(F)(F)F)c3)[C@@H]2CO)c1OC`, for which the IC50 was 30 nM.

As to `CC[C@H]1[C@@H](c2cc(C(F)(F)F)cc(C(F)(F)F)c2)OC(=O)N1C(=O)CCc1cncc2ccccc12`, the IC50 is 60 nM.

`COc1cc([C@H]2OC(=O)N(C(=O)NCc3cccc4nccnc34)[C@H]2CO)cc(C(F)(F)F)c1`: the IC50 was 450 nM.

Turning to `COc1cc([C@H]2OC(=O)N(C(=O)NCc3cccc4cncnc34)[C@H]2CO)cc(C(F)(F)F)c1`, the IC50 was 870 nM.

`C[C@H]1[C@@H](c2cc(F)cc(C(F)(F)F)c2)OC(=O)N1C(=O)N(O)Cc1cccc2ccccc12`: the concentration for half-maximal inhibition (IC50) was 7760 nM.

`C[C@H]1[C@@H](c2cccc(Br)n2)OC(=O)N1C(=O)CCc1cccc2ccccc12`: the IC50 was 480 nM.

With `C[C@H]1[C@@H](c2cc(F)cc(C(F)(F)F)c2)OC(=O)N1C(=O)NCc1ccccc1[N+](=O)[O-]`, the IC50 is 10 nM.

With `C[C@H]1[C@@H](c2cc(C(F)(F)F)cc(C(F)(F)F)c2)OC(=O)N1C(=O)NCc1cccc2c1OCCO2`, the IC50 was 10 nM.

As for `C[C@H]1[C@@H](c2cc(F)cc(C(F)(F)F)c2)OC(=O)N1C(=O)NCc1cccc2cc[nH]c12`, the IC50 was 60 nM.

For the compound `C=CCOc1cc([C@H]2OC(=O)N(C(=O)NCc3cncc4ccccc34)[C@H]2C)nc(C(F)(F)F)c1`, the IC50 is 60 nM.

In the case of `C[C@H]1[C@@H](c2cc(F)cc(C(F)(F)F)c2)OC(=O)N1C(=O)NCc1ccccc1CN(C)C`, the IC50 was 690 nM.

For the compound `O=C(NCc1cncc2cccnc12)N1C(=O)O[C@H](c2cc(C(F)(F)F)cc(C(F)(F)F)c2)[C@@H]1CO`, the half-inhibitory concentration (IC50) was 140 nM.

For `C[C@H]1[C@@H](c2cc(F)cc(C(F)(F)F)c2)OC(=O)N1C(=O)NCc1cncc2ccccc12`, the IC50 was 10 nM.

In the case of `Cc1cnc(F)c(CNC(=O)N2C(=O)O[C@H](c3cc(C(F)(F)F)cc(C(F)(F)F)c3)[C@@H]2C)c1`, the IC50 is 610 nM.

On to `C[C@H]1[C@@H](c2cc(F)cc(C(F)(F)F)c2)OC(=O)N1C(=O)NCc1ccccc1S(C)(=O)=O`, for which the IC50 is 2970 nM.

`COc1cc([C@H]2OC(=O)N(C(=O)NCc3cncc4cccnc34)[C@H]2CO)cc(C(F)(F)F)c1`: the IC50 was 1240 nM.

For the compound `C[C@H]1[C@@H](c2cccc(C(F)(F)F)c2)OC(=O)N1C(=O)NCc1cncc2ccccc12`, the IC50 was 160 nM.

As for `C[C@H]1[C@@H](c2cc(N(C)C)cc(C(F)(F)F)c2)OC(=O)N1C(=O)NCc1cncc2ccccc12`, the IC50 is 30 nM.

Regarding `C[C@H]1[C@@H](c2cc(C(F)(F)F)cc(C(F)(F)F)c2)OC(=O)N1C(=O)NCc1cncc2cccnc12`, the IC50 was 10 nM.

As to `C[C@H]1[C@@H](c2ccc(F)c(F)c2)OC(=O)N1C(=O)CCc1cncc2ccccc12`, the IC50 is 4640 nM.

On to `C[C@H]1[C@@H](c2cccc(C(F)(F)F)c2)OC(=O)N1C(=O)NCc1cncc2cccnc12`, for which the IC50 was 130 nM.

Consider `C[C@H]1[C@@H](c2cc(F)cc(C(F)(F)F)c2)OC(=O)N1C(=O)NCc1cccc2cncnc12`, for which the IC50 was 340 nM.
